Tested on: PDC KRAS tumor spheroids with HUVEC/MSC, viability
Assay: Anticancer human tumor 349418-098-R-PDC patient-derived lung adenocarcinoma cell line growth inhibition [KRAS2]
Details: for IC50: curve of first compound; for viability, T/C: stronger effect = lower value
In short: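 Combination screen of spheroid viability in tumor-cell co-cultures with endothelial (HUVEC) and mesenchymal stem cell stroma. Each agent was tested in half-log dilutions, topping at clinical Cmax or at 10 microM without a known Cmax.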

[1] = second compound 0.1 µM, first compound 0.0316 µM
[2] = second compound 0.1 µM, first compound 0.1 µM
[3] = second compound 0.1 µM, first compound 0.316 µM
[4] = second compound 0.1 µM, first compound 1 µM
[5] = second compound 0.1 µM, first compound 3.16 µM
[6] = second compound 0.1 µM, first compound 10 µM
[7] = second compound 0.316 µM, first compound 0.0316 µM
[8] = second compound 0.316 µM, first compound 0.1 µM
[9] = second compound 0.316 µM, first compound 0.316 µM
[10] = second compound 0.316 µM, first compound 1 µM
[11] = second compound 0.316 µM, first compound 3.16 µM
[12] = second compound 0.316 µM, first compound 10 µM
[13] = second compound 1 µM, first compound 0.0316 µM
[14] = second compound 1 µM, first compound 0.1 µM
[15] = second compound 1 µM, first compound 0.316 µM
[16] = second compound 1 µM, first compound 1 µM
[17] = second compound 1 µM, first compound 3.16 µM
[18] = second compound 1 µM, first compound 10 µM
[19] = second compound 3.16 µM, first compound 0.0316 µM
[20] = second compound 3.16 µM, first compound 0.1 µM
[21] = second compound 3.16 µM, first compound 0.316 µM
[22] = second compound 3.16 µM, first compound 1 µM
[23] = second compound 3.16 µM, first compound 3.16 µM
[24] = second compound 3.16 µM, first compound 10 µM
[25] = second compound 10 µM, first compound 0.0316 µM
[26] = second compound 10 µM, first compound 0.1 µM
[27] = second compound 10 µM, first compound 0.316 µM
[28] = second compound 10 µM, first compound 1 µM
[29] = second compound 10 µM, first compound 3.16 µM
[30] = second compound 10 µM, first compound 10 µM
[31] = second compound 0.1 µM, first compound 0.000316 µM
[32] = second compound 0.1 µM, first compound 0.001 µM
[33] = second compound 0.1 µM, first compound 0.00316 µM
[34] = second compound 0.1 µM, first compound 0.01 µM
[35] = second compound 0.316 µM, first compound 0.000316 µM
[36] = second compound 0.316 µM, first compound 0.001 µM
[37] = second compound 0.316 µM, first compound 0.00316 µM
[38] = second compound 0.316 µM, first compound 0.01 µM
[39] = second compound 1 µM, first compound 0.000316 µM
[40] = second compound 1 µM, first compound 0.001 µM
[41] = second compound 1 µM, first compound 0.00316 µM
[42] = second compound 1 µM, first compound 0.01 µM
[43] = second compound 3.16 µM, first compound 0.000316 µM
[44] = second compound 3.16 µM, first compound 0.001 µM
[45] = second compound 3.16 µM, first compound 0.00316 µM
[46] = second compound 3.16 µM, first compound 0.01 µM
[47] = second compound 10 µM, first compound 0.000316 µM
[48] = second compound 10 µM, first compound 0.001 µM
[49] = second compound 10 µM, first compound 0.00316 µM
[50] = second compound 10 µM, first compound 0.01 µM
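Further: spheroids exposed to compounds for seven days before readout.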

| SMILES | IC50 (second compound 0.1 µM) [nM] | IC50 (second compound 0.316 µM) [nM] | IC50 (second compound 1 µM) [nM] | IC50 (second compound 3.16 µM) [nM] | IC50 (second compound 10 µM) [nM] | viability, T/C [1] [%] | viability, T/C [2] [%] | viability, T/C [3] [%] | viability, T/C [4] [%] | viability, T/C [5] [%] | viability, T/C [6] [%] | viability, T/C [7] [%] | viability, T/C [8] [%] | viability, T/C [9] [%] | viability, T/C [13] [%] | viability, T/C [14] [%] | viability, T/C [19] [%] | viability, T/C [20] [%] | viability, T/C [25] [%] | viability, T/C [26] [%] | further results |
| --- | --- | --- | --- | --- | --- | --- | --- | --- | --- | --- | --- | --- | --- | --- | --- | --- | --- | --- | --- | --- | --- |
| CC1OCC2(CCN(c3cnc(Sc4ccnc(N)c4Cl)c(N)n3)CC2)C1N (stereo not given) + COc1cc2nc(C)nc(NC(C)c3cc(N)cc(C(F)(F)F)c3)c2cc1OC1CCOC1 | > 10000 | > 10000 | > 10000 | > 10000 | < 31.6 | 101 | 77.2 | 54.4 | 97.6 | 85.6 | 62.7 | 114 | 80.8 | 54.5 | 124 | 99.3 | 93.8 | 77.7 | 42.8 | 29.8 | viability, T/C [10]: 95.3%; viability, T/C [11]: 95.3%; viability, T/C [12]: 77.8%; viability, T/C [15]: 67.7%; viability, T/C [16]: 72.1%; viability, T/C [17]: 80%; viability, T/C [18]: 74.1%; viability, T/C [21]: 46%; viability, T/C [22]: 62.6%; viability, T/C [23]: 86.7%; viability, T/C [24]: 57.1%; viability, T/C [27]: 18.9%; viability, T/C [28]: 24.1%; viability, T/C [29]: 35.3%; viability, T/C [30]: 19.2% |
| Cn1ncnc1[C@H]1c2n[nH]c(=O)c3cc(F)cc(c23)N[C@@H]1c1ccc(F)cc1 + CNCc1ccccc1-c1csc(C(C)Nc2nc(C)nc3cc(OC)c(OC)cc23)c1 | > 100 | > 100 | > 100 | < 0.316 | < 0.316 | 90.4 | 86.4 |  |  |  |  | 84.3 | 76.3 |  | 72.1 | 64.9 | 0.1 | 0.16 | 0.08 | 0.13 | viability, T/C [31]: 102%; viability, T/C [32]: 98%; viability, T/C [33]: 99.7%; viability, T/C [34]: 91.3%; viability, T/C [35]: 102%; viability, T/C [36]: 102%; viability, T/C [37]: 90.6%; viability, T/C [38]: 93.9%; viability, T/C [39]: 77.5%; viability, T/C [40]: 64.6%; viability, T/C [41]: 73.2%; viability, T/C [42]: 71.4%; viability, T/C [43]: 0.11%; viability, T/C [44]: 0.09%; viability, T/C [45]: 0.09%; viability, T/C [46]: 0.08%; viability, T/C [47]: 0.07%; viability, T/C [48]: 0.07%; viability, T/C [49]: 0.08%; viability, T/C [50]: 0.07% |
| Cn1ncnc1[C@H]1c2n[nH]c(=O)c3cc(F)cc(c23)N[C@@H]1c1ccc(F)cc1 + C=CC(=O)N1CCN(c2nc(=O)n(-c3c(C)ccnc3C(C)C)c3nc(-c4c(O)cccc4F)c(F)cc23)C(C)C1 | > 100 | > 100 | > 100 | > 100 | < 0.316 | 88.1 | 87 |  |  |  |  | 83 | 75.7 |  | 64.6 | 64.6 | 61.1 | 56.3 | 34.3 | 30.5 | viability, T/C [31]: 101%; viability, T/C [32]: 95.4%; viability, T/C [33]: 94.5%; viability, T/C [34]: 92.3%; viability, T/C [35]: 95.2%; viability, T/C [36]: 88.4%; viability, T/C [37]: 86.8%; viability, T/C [38]: 87.6%; viability, T/C [39]: 81.1%; viability, T/C [40]: 79.3%; viability, T/C [41]: 80.5%; viability, T/C [42]: 73.3%; viability, T/C [43]: 65.8%; viability, T/C [44]: 66.6%; viability, T/C [45]: 58.1%; viability, T/C [46]: 60.9%; viability, T/C [47]: 39%; viability, T/C [48]: 43.6%; viability, T/C [49]: 43.9%; viability, T/C [50]: 29.1% |
| CC1OCC2(CCN(c3cnc(Sc4ccnc(N)c4Cl)c(N)n3)CC2)C1N (stereo not given) + CNCc1ccccc1-c1csc(C(C)Nc2nc(C)nc3cc(OC)c(OC)cc23)c1 | > 10000 | > 10000 | < 31.6 | < 31.6 | < 31.6 | 84.7 | 98.9 | 65 | 103 | 111 | 88.3 | 103 | 91.1 | 109 | 42.8 | 35.4 | 0.05 | 0.07 | 0.06 | 0.07 | viability, T/C [10]: 88.2%; viability, T/C [11]: 88.4%; viability, T/C [12]: 72.9%; viability, T/C [15]: 34%; viability, T/C [16]: 46.8%; viability, T/C [17]: 50.6%; viability, T/C [18]: 16.5%; viability, T/C [21]: 0.06%; viability, T/C [22]: 0.41%; viability, T/C [23]: 0.12%; viability, T/C [24]: 0.17%; viability, T/C [27]: 0.06%; viability, T/C [28]: 0.35%; viability, T/C [29]: 0.07%; viability, T/C [30]: 0.12% |
| COc1cc(Nc2ncc3c(n2)-c2ccc(Cl)cc2C(c2c(F)cccc2OC)=NC3)ccc1C(=O)O + CC1OCC2(CCN(c3cnc(Sc4ccnc(N)c4Cl)c(N)n3)CC2)C1N | 43.1 | 43.6 | 50.2 | < 31.6 | 33.6 | 56.5 | 32.4 | 32.4 | 40.1 | 30.8 | 24 | 57.4 | 27.8 | 38.8 | 57.4 | 35.4 | 39.4 | 36.3 | 51 | 33.5 | viability, T/C [10]: 26.4%; viability, T/C [11]: 40.2%; viability, T/C [12]: 20.4%; viability, T/C [15]: 39%; viability, T/C [16]: 38.1%; viability, T/C [17]: 27.3%; viability, T/C [18]: 25%; viability, T/C [21]: 28%; viability, T/C [22]: 28.7%; viability, T/C [23]: 32.9%; viability, T/C [24]: 28.4%; viability, T/C [27]: 32.8%; viability, T/C [28]: 31.1%; viability, T/C [29]: 31.4%; viability, T/C [30]: 27% |
| Cn1nccc1Nc1nccc(-c2cc3c(s2)C(C)(C)N(CCN2CCOCC2)C3=O)n1 + COc1cc2nc(C)nc(NC(C)c3cc(N)cc(C(F)(F)F)c3)c2cc1OC1CCOC1 | 52.4 | 37.4 | 36.3 | < 31.6 | < 31.6 | 71.1 | 22.4 | 12.5 | 7.65 | 6.07 | 4.14 | 55.6 | 19 | 12.2 | 53.4 | 24.2 | 41.8 | 19.1 | 15.1 | 7.62 | viability, T/C [10]: 6.27%; viability, T/C [11]: 6.54%; viability, T/C [12]: 4.93%; viability, T/C [15]: 8.8%; viability, T/C [16]: 7.31%; viability, T/C [17]: 5.44%; viability, T/C [18]: 4.32%; viability, T/C [21]: 7.42%; viability, T/C [22]: 5.91%; viability, T/C [23]: 4.66%; viability, T/C [24]: 4.79%; viability, T/C [27]: 4.31%; viability, T/C [28]: 3.93%; viability, T/C [29]: 2.92%; viability, T/C [30]: 2.13% |

Source: PubChem BioAssay AID1963866 (Molecular Pharmacology Branch, DTP, NCI, 2024)
